Type in all cases: cell-based
The subject of one experiment is feline calicivirus (FCV). The experiment is described as follows: Virucidal effect in presence of organic material (BSA). The following applies: 1,000 µg/ml. The protocol:
• Virus: using feline calicivirus (FCV) as a replacement for norovirus • Used medicine and concentration: 1,000 µg/ml of sodium hypochlorite or coccomyxa sp. KJ strain MGDG preparation • Organic material: using BSA (albumin) 5%
• (1) Feline calicivirus (FCV) was prepared in 2×10^5 PFU/ml. • (2) An MGDG preparation or sodium hypochlorite is prepared at a concentration four times the final assay concentration ([…]). • (3) Bovine serum albumin (BSA) is prepared as an organic material at a concentration four times the final concentration (5%). • (4) Virus fluid: the MGDG preparation or sodium hypochlorite and BSA are mixed at a ratio of 2 : 1 : 1. A sample prepared by adding PBS instead of the MGDG preparation or sodium hypochlorite was used as a control. • (5) After being left at room temperature for 1 minute, 10 minutes, and 60 minutes, 100-fold dilution with PBS is performed. The CRFK cells cultured in a monolayer fashion are added in an amount of 100 µl/culture dish to a 35 mm culture dish, and an infection treatment is performed at room temperature for 1 hour. • (6) A 1% SeaPlaque Agarose-added MEM culture medium is overlaid. • (7) After 2 days, the appeared plaque is immobilized and stained with a crystal violet solution. • (8) The number of plaques is counted under a microscope.

A further experiment deals with Influenza A virus (IFV). The experiment is described as follows: Virucidal activity of each MGDG fraction, influenza virus. To be noted: 50 µg/ml, 37°C, 60 minutes; MDCK cell.
In experiment [1] the test system is Herpes simplex virus type 2 (HSV-2). The experiment is described as follows: Virucidal activity of each MGDG fraction, herpes simplex virus type 2. The following applies: 50 µg/ml, 37°C, 60 minutes, Vero cell. The protocol: (1) A coccomyxa sp. KJ strain-derived MGDG preparation was subjected to HPLC, and each peak was separated, thereby obtaining five types of MGDG refined products (MGDG1, MGDG2, MGDG3, MGDG4, and MGDG5). Furthermore, the MGDG preparation before separation (containing MGDG1 to MGDG5) was prepared as a mix product. (2) Each sample was mixed with respect to each virus fluid (2×10^5 PFU/ml) so that the final concentration became 50 µg/ml, and the resultant product was left to stand still at 37°C for 60 minutes.
(3) The mixed liquid of (2) is diluted in the MEM culture medium without foetal bovine serum, a culture medium for plaque assay is then overlaid, and culturing is performed at 37°C for 2 to 3 days. (4) After checking appearance of plaques, the cells were immobilized and stained with a neutral red solution, and the number of plaques was measured under a microscope. The virus survival rate of each sample was calculated based on the appearance number of virus appearing in the case of not adding the sample (100%). The virucidal performance of each sample was evaluated from the virus survival rate.

We go through 2 compounds from patent publication EP3831399A1, “ANTI-NOROVIRUS AGENT” (DENSO CORPORATION, priority 2018, dated 2020).

Entries after “also recorded” stand apart in the source; their conditions may differ.

As for `OCl` [sodium hypochlorite], the “inactivation effect in the presence of the organic material, change versus its absence” value in the experiment on feline calicivirus (FCV) (5% BSA) is “significantly reduced”. The “rate of virus inactivation” value in the experiment on feline calicivirus (FCV) (organic material (BSA) did not exist, one minute) amounted to 100%.
Turning to “monogalactosyldiacylglycerol in which a constituent fatty acid is C18:3 and C18:2 [MGDG5]”, the “virucidal (inactivation) activity (virus survival rate)” value with Influenza A virus (IFV) is reported as “significant inactivation effect; also recorded: high virucidal activity”; in experiment [1], “significant inactivation effect”; in experiment [1] (listed as fifth peak of the KJ strain MGDG preparation), “high virucidal activity”.
